Source: article PMC3739763 (PLoS ONE, 2013)
Where two headings read alike, the source gives them in different places.

Columns and labels:
[1] = biological target: T1, Human serum albumin (HSA) (Homo sapiens, UniProt P02768); experiment: Steady state fluorescence quenching of HSA by HA; type: binding; details: for KSV (Stern-Volmer quenching constant) / n (binding sites): pH 7.4, HSA 5 µM; for TΔS°: van't Hoff
T1 construct: I (residues 1–195), II (196–383), III (384–585); purchased Sigma Aldrich A1887
Procedure: Fluorescence emission spectra were recorded in range of 300–400 nm on a Shimadzu 5301PC fluorescence spectrophotometer equipped with water circulator (Julabo Eyela) at excitation wavelength of 295 nm. Both the excitation and emission slits were set at 3 nm. […] Respective blanks were subtracted. […] Furthermore if a quencher, Q, form complex, Q n B, with protein B and have ‘n’ multiple (equivalent and independent) binding sites then quenching reaction is often represented as: [drawing 5] (2) and its binding constant (Kb ) is given by equation 3:[18]
[drawing 6] (3) If the total amount of protein (with and without bound Q) is [B o], then [drawing 7] (4) [drawing 8] (5) where [B] is the concentration of the unbound protein. The fluorescence intensity is proportional to the protein concentration as described below: [drawing 9] (6) then, relationship between the fluorescence intensity and unbound protein is expressed as:
[drawing 10] (7) So, if the formation of a nonfluorescent fluorophore–quencher complex occurs, then, the value of K b can be obtained by using equation 7.

[2] = biological target: T1, Human serum albumin (HSA); experiment: Binding displacement measurement using site markers (fluorescence, Stern-Volmer); details: protein:marker 1:1
Procedure: Different site markers warfarin (WAR) for site I and diazepam (DIA) for site II [19], [20] were used for performing displacement experiments. […] The fluorescence emission spectra were recorded as mentioned in fluorescence measurements and the binding constant values of drug–protein–marker were evaluated using Stern–Volmer equation.

[3] = biological target: T1, Human serum albumin (HSA); experiment: Isothermal titration calorimetry (ITC), sequential model of two binding sites; details: for van't Hoff enthalpy: equation 12; for ΔCP (change in heat capacity): 25-37 °C
Procedure: Prior to the titration experiment, all solutions were degassed properly on a thermovac. The 1.44 mL sample and reference cell of the calorimeter were loaded with HSA and 20 mM sodium phosphate buffer (pH 7.4), respectively. […] The reference power was set at 16 µcal s^−1. […] Heats of dilution for the ligand and protein were subtracted from the integrated data before curve fitting. The data were fitted and analyzed with a sequential model of two binding sites using Origin 7.0 provided with the MicroCal instrument. Association constant (K b) and standard enthalpy change (ΔH°) were directly obtained after fitting while ΔG° was calculated from equation 8. The ΔS ^o was calculated using the equation: [drawing 13] (10) and change in specific heat capacity can be calculated from the equation:
[drawing 14] (11) Further the standard van’t Hoff enthalpy [drawing 15] at each temperature was calculated using equation: [drawing 16] (12) here, K(T1) and K(T2) are the values of binding constant at temperatures T 1 and T 2 respectively.

[4] = biological target: T1, Human serum albumin (HSA); experiment: Differential scanning calorimetry (DSC) thermostability of HSA in presence of HA; type: binding
Procedure: The differential scanning calorimetric measurements were carried out using VP-DSC microcalorimeter (MicroCal, Northampton, MA). The buffer and protein solutions were degassed under mild vacuum prior to the experiment. Samples were prepared in 20 mM sodium phosphate buffer, pH 7.4. […] 1∶0, 1∶5, and 1∶10 were performed from 25 to 90°C at a scan rate of 0.5°C/min. Data were analyzed using Origin software provided with the instrument to obtain the temperature at the midpoint of the unfolding transition (T m) and calorimetric enthalpy (ΔH°).

[5] = biological target: T1, Human serum albumin (HSA); experiment: Esterase-like activity of HSA toward p-NPA in presence of HA; type: biochemical
[6] = parameters: method as in PMID 12675874; details: cited from earlier work
[7] = parameters: method as in PMID 1643710, PMID 11721007; details: cited from earlier work

T1 sequence (P02768 25-609): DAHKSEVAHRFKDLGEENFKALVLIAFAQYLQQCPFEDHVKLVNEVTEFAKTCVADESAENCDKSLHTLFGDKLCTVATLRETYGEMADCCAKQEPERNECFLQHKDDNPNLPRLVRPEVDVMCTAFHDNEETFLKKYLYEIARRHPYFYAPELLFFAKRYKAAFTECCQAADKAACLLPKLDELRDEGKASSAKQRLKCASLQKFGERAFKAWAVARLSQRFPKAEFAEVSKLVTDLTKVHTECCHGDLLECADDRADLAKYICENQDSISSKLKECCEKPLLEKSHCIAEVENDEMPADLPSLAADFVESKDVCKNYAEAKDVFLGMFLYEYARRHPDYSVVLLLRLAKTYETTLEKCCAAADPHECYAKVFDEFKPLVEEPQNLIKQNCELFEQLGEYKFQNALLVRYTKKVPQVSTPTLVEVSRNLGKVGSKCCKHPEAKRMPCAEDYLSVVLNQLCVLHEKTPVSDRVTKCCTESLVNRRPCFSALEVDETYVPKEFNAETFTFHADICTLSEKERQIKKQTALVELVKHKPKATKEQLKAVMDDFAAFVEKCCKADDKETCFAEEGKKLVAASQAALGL

- k q (bimolecular rate constant) ([1]; 25 °C): (1.36±0.06 ) ×10^12 M^−1 s^−1
- ΔG° ([1]; 25 °C): -5.21 ± 0.02 kcal/mol
- KSV (Stern-Volmer quenching constant) ([1]; 25 °C): (7.80±0.36) ×10^3 M^−1
- n (binding sites) ([1]; 25 °C): 0.98±0.02
- TΔS° ([1]; 25 °C): -23.48 ± 0.24 kcal/mol
- k q (bimolecular rate constant) ([1]; 30 °C): (5.77±0.03 ) ×10^11 M^−1 s^−1
- ΔG° ([1]; 30 °C): -4.88 ± 0.06 kcal/mol
- KSV (Stern-Volmer quenching constant) ([1]; 30 °C): (3.30±0.02) ×10^3 M^−1
- n (binding sites) ([1]; 30 °C): 0.99±0.01
- TΔS° ([1]; 30 °C): -23.88 ± 0.24 kcal/mol
- k q (bimolecular rate constant) ([1]; 37 °C): (2.29±0.01 ) ×10^11 M^−1 s^−1
- ΔG° ([1]; 37 °C): -4.28 ± 0.01 kcal/mol
- KSV (Stern-Volmer quenching constant) ([1]; 37 °C): (1.31±0.08) ×10^3 M^−1
- n (binding sites) ([1]; 37 °C): 0.97±0.02
- TΔS° ([1]; 37 °C): -24.43 ± 0.25 kcal/mol
- K b (order of magnitude) ([1]; spectroscopic results, single site): ~10^3
- K sv of HSA-HA in presence of site marker ([2]; in presence of DIA (site II marker)): (2.03±0.03)× 10^3 M^−1
- K sv of HSA-HA in presence of site marker ([2]; in presence of WAR (site I marker)): (2.74±0.04)×10^3 M^−1
- van't Hoff enthalpy ([3]; 25 °C, high affinity site): -11.98 kcal/mol
- van't Hoff enthalpy ([3]; 25 °C, low affinity site): -24.69 kcal/mol
- ΔG° ([3]; High affinity site, 25 °C): -6.05 ± 0.10 kcal/mol
- ΔH° ([3]; High affinity site, 25 °C): -4.41 ± 0.46 kcal/mol
- TΔS° ([3]; High affinity site, 30 °C): 0.76 ± 0.06 kcal/mol
- ΔG° ([3]; High affinity site, 30 °C): -5.94 ± 0.01 kcal/mol
- ΔH° ([3]; High affinity site, 30 °C): -5.18 ± 0.07 kcal/mol
- TΔS° ([3]; High affinity site, 37 °C): -0.20 ± 0.01 kcal/mol
- ΔG° ([3]; High affinity site, 37 °C): -5.93 ± 0.02 kcal/mol
- ΔH° ([3]; High affinity site, 37 °C): -6.14 ± 0.15 kcal/mol
- TΔS° ([3]; Low affinity site, 25 °C): -2.88 ± 0.40 kcal/mol
- ΔG° ([3]; Low affinity site, 25 °C): -4.69 ± 0.10 kcal/mol
- ΔH° ([3]; Low affinity site, 25 °C): -7.58 ± 0.96 kcal/mol
- TΔS° ([3]; Low affinity site, 30 °C): -5.39 ± 0.35 kcal/mol
- ΔG° ([3]; Low affinity site, 30 °C): -4.35 ± 0.02 kcal/mol
- ΔH° ([3]; Low affinity site, 30 °C): -9.74 ± 0.34 kcal/mol
- TΔS° ([3]; Low affinity site, 37 °C): -6.69 ± 0.36 kcal/mol
- ΔG° ([3]; Low affinity site, 37 °C): -4.41 ± 0.03 kcal/mol
- ΔH° ([3]; Low affinity site, 37 °C): -11.11 ± 0.69 kcal/mol
- K b (order of magnitude) ([3]; high affinity site): ~10^4
- ΔCP (change in heat capacity) ([3]; high affinity site): −0.14±0.11 kcal mol^−1°C^−1
- K b (order of magnitude) ([3]; low affinity site): ~10^3
- ΔCP (change in heat capacity) ([3]; low affinity site): −0.28±0.24 kcal mol^−1°C^−1
- Tm of first sub-transition of HSA (head drawing C00030) ([4]; HSA:HA 1∶5, HSA 18 µM): 57.25±0.01 °C
- Tm of second sub-transition of HSA (head drawing C00031) ([4]; HSA:HA 1∶5, HSA 18 µM): 62.51±0.09 °C
- Tm of third sub-transition of HSA (head drawing C00032) ([4]; HSA:HA 1∶5, HSA 18 µM): 73.87±0.04 °C
- ΔH° of first sub-transition (head drawing C00033) ([4]; HSA:HA 1∶5, HSA 18 µM): 54.41 ± 0.10 kcal/mol
- ΔH° of second sub-transition (head drawing C00034) ([4]; HSA:HA 1∶5, HSA 18 µM): 56.13 ± 0.12 kcal/mol
- ΔH° of third sub-transition (head drawing C00035) ([4]; HSA:HA 1∶5, HSA 18 µM): 13.92 ± 0.07 kcal/mol
- Tm of first sub-transition of HSA (head drawing C00030) ([4]; HSA:HA 1∶10, HSA 18 µM): 58.36±0.08 °C
- Tm of second sub-transition of HSA (head drawing C00031) ([4]; HSA:HA 1∶10, HSA 18 µM): 63.83±0.02 °C
- Tm of third sub-transition of HSA (head drawing C00032) ([4]; HSA:HA 1∶10, HSA 18 µM): 73.96±0.03 °C
- ΔH° of first sub-transition (head drawing C00033) ([4]; HSA:HA 1∶10, HSA 18 µM): 68.47 ± 0.80 kcal/mol
- ΔH° of second sub-transition (head drawing C00034) ([4]; HSA:HA 1∶10, HSA 18 µM): 57.37 ± 0.60 kcal/mol
- ΔH° of third sub-transition (head drawing C00035) ([4]; HSA:HA 1∶10, HSA 18 µM): 13.90 ± 0.09 kcal/mol
- Vmax for hydrolysis of p-NPA by HSA ([5]; HSA:HA 1∶0.5, HSA 15 µM, 25 °C): 0.16 ± 0.02 µM/s
- Vmax for hydrolysis of p-NPA by HSA ([5]; HSA:HA 1∶1, HSA 15 µM, 25 °C): 0.16 ± 0.01 µM/s
- Vmax for hydrolysis of p-NPA by HSA ([5]; HSA:HA 1∶2, HSA 15 µM, 25 °C): 0.16 ± 0.02 µM/s
- Vmax for hydrolysis of p-NPA by HSA ([5]; HSA:HA 1∶3, HSA 15 µM, 25 °C): 0.16 ± 0.01 µM/s
- Ki ([5]; competitive, substrate p-NPA, 25 °C, read-out: K i (inhibitor constant) for esterase-like activity of HSA): 21.7 µM
- Mode of inhibition of esterase-like activity of HSA ([5]; substrate p-NPA): competitively
Compound: O=C(O)CNC(=O)c1ccccc1 [HA, hippuric acid]
- concentration of HA ([6]; healthy individual): less than 5 mg/L
- concentration of HA ([6]; patients with end-stage renal disease): higher than 247±112 mg/L
- elimination of HA through hemodialysis [7]: 64%
